Assays:
[1] = system: pUC119 plasmid DNA; assay: Protection of plasmid DNA from H2O2 and UV exposure (electrophoresis); type: biochemical; settings: 20 mM H2O2 + 20 mJ/m^2 UV; Amifostine 2000 μg/ml, GP-A 4000 μg/ml; FIG. 3
Description: In this example, we examined the ability of GP-A in protecting plasmid DNA from hydrogen peroxide (H2O2) and UV exposure, which was also an indicator of the ability of quenching free radicals because free radicals tend to attack DNA structure. Amifostine, GP-Amifostine and GP were respectively dissolved in dd-water at various concentrations.
The above-nine experimental groups were then mixed with 3 μl loading dye for electrophoresis in order to observe the integrity of the plasmid DNA.

[2] = cited from earlier work
[3] = patients, intravenously before each fraction of radiation therapy; cited from earlier work
[4] = NSCLC patients, chemoradiation therapy, Arm 2; cited from earlier work
[5] = cited from earlier work; remark: listed apart in the source

NCCCNCCSP(=O)(O)O [Amifostine, S-2-(3-aminopropylamino)ethyl dihydrogen phosphorothioate]
protection ability against UV & H2O2 treated plasmid DNA [1]: solid and slight protection ability | protection of brain and spinal cord from radiation damage ([2]; brain and spinal cord): not protected | protection of normal tissues from radiation damage (factor) ([2]; esophagus, lung, kidney, liver, bone marrow, immune system, skin, colon, small bowel, salivary gland, oral mucosa, testis): ≤ 3 | distribution between normal tissues and tumors ([2]; in vivo): selectively concentrated in normal tissues but passively absorbed by tumors | sparing of tumors from the effects of radiation or chemotherapy ([2]; tumors): no evidence that tumors were spared | severity of acute and late xerostomia [3]: significant reduction | Median survival time [4]: 19 months | discharge from a human body ([5]; human): within one hour | undesirable side-effects of systemic administration ([5]; patients, systemic administration): nausea, vomiting, emesis and hypotension, as well as flushing or feeling of warmth, chills or feeling of coldness, dizziness, somnolence, hiccups and sneezing

From patent publication US8648042B2, “Pharmaceutical compositions” (priority 2011, dated 2014)
